Laboratory results as given in patent US20240174618A1, “SUBSTITUTED (2-HETEROARYLOXYPHENYL)SULFONATES, SALTS THEREOF AND THEIR USE AS HERBICIDAL AGENTS” (Bayer Aktiengesellschaft, priority 2021, published 2024).

Key:
Type in all cases: in vivo
[1] = test system: Digitaria sanguinalis (DIGSA); assay: B. Herbicidal post-emergence efficacy, DIGSA; conditions: rated visually after about 3 weeks
Outline: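 First, seeds were sown in sandy loam and grown 2 to 3 weeks under controlled greenhouse conditions. Next, foliage at the one-leaf stage received the formulated compound in water with 0.5% additive (600 L/ha, 1280 g/ha or less). Finally, damage was rated visually after about 3 weeks against untreated plants.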

[2] = test system: Amaranthus retroflexus (AMARE); assay: A. Herbicidal pre-emergence efficacy, AMARE
Outline: (§1)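 Pre-emergence soil-surface spray in sandy loam pots, WP/EC in water plus 0.5% additive, 600 L/ha. Visual % damage rating after about 3 weeks in greenhouse vs. untreated; 0% = control-like, 100% = dead plants. Rates up to 1280 g/ha.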

[3] = test system: Echinochloa crus-galli (ECHCG); assay: A. Herbicidal pre-emergence efficacy, ECHCG; conditions: scored visually after about 3 weeks vs untreated controls
Outline: as §1

[4] = test system: Digitaria sanguinalis (DIGSA); assay: C. Herbicidal pre-emergence efficacy, DIGSA; conditions: scored after about 3 weeks
Outline: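 Pre-emergence test: formulated compounds sprayed as aqueous suspension or emulsion with 0.5% additive at 600 l/ha onto soil covering sown seeds, at rates corresponding to 320 g/ha or less. After about 3 weeks in greenhouse, efficacy scored visually as percent versus untreated controls (100% = plants dead).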

[5] = test system: Echinochloa crus-galli (ECHCG); assay: C. Herbicidal pre-emergence efficacy, ECHCG; conditions: scored after about 3 weeks
Text: (§2) Seeds of monocotyledonous and dicotyledonous weed plants and crop plants were placed in plastic or organic planting pots and covered with soil. The compounds of the invention, formulated in the form of wettable powders (WP) or as emulsion concentrates (EC), were then applied to the surface of the covering soil as aqueous suspension or emulsion with addition of 0.5% additive at a water application rate equivalent to 600 l/ha (converted). After the treatment, the pots were placed in a greenhouse and kept under good growth conditions for the test plants. After about 3 weeks, the efficacy of the preparations was scored visually in comparison with untreated controls as percentages. For example, • 100% efficacy=plants have died, • 0% efficacy=like untreated control plants.
(§3) Tables C1a to C14b below show the effects of selected compounds of the general formula (I) according to table 1 on various harmful plants at an application rate corresponding to 320 g/ha or less, which were obtained by the experimental procedure mentioned above.

[6] = test system: Abutilon theophrasti (ABUTH); assay: E. Herbicidal post-emergence efficacy, ABUTH
Outline: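 Greenhouse weeds were treated post-emergence at the one-leaf stage, 2-3 weeks after sowing in sandy loam, with WP or EC formulations sprayed as aqueous suspension/emulsion plus 0.5% additive at 600 l/ha, at 320 g/ha or less. Efficacy was rated visually after about 3 weeks versus untreated controls (100% = dead, 0% = like control).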

[7] = test system: Abutilon theophrasti (ABUTH); assay: C. Herbicidal pre-emergence efficacy, ABUTH; conditions: scored after about 3 weeks
Text: as §2, §3

Veronica persica (VERPE) = assay: C. Herbicidal pre-emergence efficacy, VERPE; conditions: scored after about 3 weeks
Text: as §2, §3

SMILES | Post-emergence efficacy against DIGSA in % ([1]; 1280 g/ha) [%] | Pre-emergence efficacy against AMARE in % ([2]; 80 g/ha) [%] | Pre-emergence efficacy against AMARE in % ([2]; 320 g/ha) [%] | Pre-emergence efficacy against AMARE in % ([2]; 1280 g/ha) [%] | Pre-emergence efficacy against ECHCG ([3]; 80 g/ha) [%] | Pre-emergence efficacy against ECHCG ([3]; 320 g/ha) [%] | Pre-emergence efficacy against ECHCG ([3]; 1280 g/ha) [%] | Post-emergence efficacy against DIGSA in % ([1]; 320 g/ha) [%] | Pre-emergence efficacy against DIGSA ([4]; 80 g/ha) [%] | Pre-emergence efficacy against DIGSA ([4]; 320 g/ha) [%] | Pre-emergence efficacy against ECHCG ([5]; 80 g/ha) [%] | Pre-emergence efficacy against ECHCG ([5]; 320 g/ha) [%] | Post-emergence efficacy against ABUTH in % ([6]; application rate 320 g/ha) [%] | Pre-emergence efficacy against ABUTH ([7]; 80 g/ha) [%] | Pre-emergence efficacy against ABUTH ([7]; 320 g/ha) [%] | Pre-emergence efficacy against VERPE (Veronica persica (VERPE); 80 g/ha) [%] | Pre-emergence efficacy against VERPE (Veronica persica (VERPE); 320 g/ha) [%] | Post-emergence efficacy against ABUTH in % ([6]; application rate 80 g/ha) [%]
Cc1cccc(Oc2ncc(Cl)cn2)c1OS(=O)(=O)CCCC(F)(F)F [Example I-28, 2-[(5-Chloropyrimidin-2-yl)oxy]-6-methylphenyl 4,4,4-trifluorobutane-1-sulfonate] | 90 | 100 | 100 | 100 | 90 | 100 | 100 | – | – | – | – | – | – | – | – | – | – | –
CCS(=O)(=O)Oc1ccccc1Oc1ncc(Cl)cn1 [Example I-16] | 90 | 100 | 100 | 100 | – | 90 | 100 | – | – | – | – | – | – | – | – | – | – | –
O=S(=O)(CCCC(F)F)Oc1c(F)cccc1Oc1ncc(Cl)cn1 [Example I-56] | 90 | 100 | 100 | 100 | 100 | 100 | 100 | 90 | 100 | 100 | 100 | 100 | 100 | 100 | 100 | – | – | –
O=S(=O)(CCCCl)Oc1ccccc1Oc1ncc(F)cn1 [Example I-5] | – | 100 | 100 | 100 | – | 100 | 100 | – | – | – | 100 | 100 | 90 | – | 100 | 100 | 100 | –
O=S(=O)(CCCCCl)Oc1ccccc1Oc1ncc(Cl)cn1 [Example I-15] | – | 100 | 100 | 100 | 100 | 100 | 100 | – | 100 | 100 | – | 90 | 80 | – | 100 | – | 80 | –
O=S(=O)(CCCC(F)(F)F)Oc1c(F)cccc1Oc1ncc(F)cn1 [Example I-42] | – | 100 | 100 | 100 | 100 | 100 | 100 | – | 100 | 100 | 100 | 100 | 100 | 100 | 100 | 100 | 100 | 80
CC(C)CS(=O)(=O)Oc1ccccc1Oc1ncc(Cl)cn1 [Example I-7, [2-(5-Chloropyrimidin-2-yl)oxyphenyl] 2-methylpropane-1-sulfonate] | – | 100 | 100 | 100 | – | 100 | 100 | – | 100 | 100 | 100 | 100 | 100 | – | 100 | 90 | 100 | –
CCCCS(=O)(=O)Oc1ccccc1Oc1ncc(Cl)cn1 [Example I-6] | – | 100 | 100 | 100 | 100 | 100 | 100 | – | 100 | 100 | 100 | 100 | 90 | 90 | 100 | 80 | 90 | 80
O=S(=O)(CCCC(F)(F)F)Oc1c(Br)cccc1Oc1ncc(Cl)cn1 [Example I-30] | 90 | 100 | 100 | 100 | – | 100 | 100 | – | – | – | – | – | – | – | – | – | – | –
O=S(=O)(CCC(F)(F)F)Oc1c(F)cccc1Oc1ncc(F)cn1 [Example I-47] | – | 100 | 100 | 100 | 100 | 100 | 100 | – | 100 | 100 | 100 | 100 | 100 | 100 | 100 | – | – | –
O=S(=O)(CCC(F)(F)F)Oc1c(F)cccc1Oc1ncc(Cl)cn1 [Example I-48] | 90 | 90 | 90 | 100 | 90 | 90 | 90 | 90 | 100 | 100 | 100 | 100 | 100 | 100 | 100 | – | – | 90
O=S(=O)(CCC(F)(F)F)Oc1c(Br)cccc1Oc1ncc(Cl)cn1 [Example I-31] | 90 | 100 | 100 | 100 | – | – | 100 | – | – | – | – | – | – | – | – | – | – | –
O=S(=O)(CCCC(F)(F)F)Oc1c(F)cccc1Oc1ncc(Cl)cn1 [Example I-49] | 90 | 90 | 100 | 100 | 90 | 90 | 90 | 90 | 100 | 100 | 100 | 100 | 80 | 100 | 100 | – | – | 80
Cc1cccc(Oc2ncc(F)cn2)c1OS(=O)(=O)CCCC(F)(F)F [Example I-46] | – | 100 | 100 | 100 | 100 | 100 | 100 | – | 100 | 100 | 90 | 100 | 90 | 100 | 100 | – | – | –
Cc1cccc(Oc2ncc(Cl)cn2)c1OS(=O)(=O)CCC(F)(F)F [Example I-29] | 100 | 90 | 100 | 100 | – | 100 | 100 | – | – | – | – | – | – | – | – | – | – | –
O=S(=O)(CCCC(F)(F)F)Oc1ccccc1Oc1ncc(Cl)cn1 [Example I-10] | – | 100 | 100 | 100 | 100 | 100 | 100 | – | 100 | 100 | 100 | 100 | 100 | 100 | 100 | 100 | 100 | 90
